Assay results as given in ChEMBL document CHEMBL4308841, “Synthesis, in vitro antiproliferative activity, and kinase inhibitory effects of pyrazole-containing diarylureas and diarylamides” (Eur J Med Chem, 2018).

Experiments:
NCI-H226 [1] = assay: Growth inhibition of human NCI-H226 cells incubated for 48 hrs by sulforhodamine B assay; format: functional, cell-based; details: NCI-H226, 48 h
HCT-116 = assay: Growth inhibition of human HCT116 cells incubated for 48 hrs by sulforhodamine B assay; format: functional, cell-based; details: HCT-116, 48 h
KM12 [2] = assay: Growth inhibition of human KM12 cells incubated for 48 hrs by sulforhodamine B assay; format: functional, cell-based; details: KM12, 48 h
SF-268 = assay: Growth inhibition of human SF268 cells incubated for 48 hrs by sulforhodamine B assay; format: functional, cell-based; details: SF-268, 48 h
UACC-62 [3] = assay: Growth inhibition of human UACC62 cells incubated for 48 hrs by sulforhodamine B assay; format: functional, cell-based; details: UACC-62, 48 h
ACHN = assay: Growth inhibition of human ACHN cells incubated for 48 hrs by sulforhodamine B assay; format: functional, cell-based
CAKI-1 = assay: Growth inhibition of human Caki1 cells incubated for 48 hrs by sulforhodamine B assay; format: functional, cell-based; details: CAKI-1, 48 h
DU-145 = assay: Growth inhibition of human DU145 cells incubated for 48 hrs by sulforhodamine B assay; format: functional, cell-based; details: DU-145, 48 h
NCI-H23 [4] = assay: Growth inhibition of human NCI-H23 cells assessed as cell growth at 0.01 uM incubated for 48 hrs by sulforhodamine B assay relative to control; format: functional; details: NCI-H23, 48 h, read-out: Activity
SNB-75 = assay: Growth inhibition of human SNB75 cells assessed as cell growth at 0.01 uM incubated for 48 hrs by sulforhodamine B assay relative to control; format: functional; details: SNB-75, 48 h, read-out: Activity
SK-MEL-5 = assay: Growth inhibition of human SK-MEL-5 cells assessed as cell growth at 0.01 uM incubated for 48 hrs by sulforhodamine B assay relative to control; format: functional; details: SK-MEL-5, 48 h, read-out: Activity
MDA-MB-468 = assay: Growth inhibition of human MDA-MB-468 cells assessed as cell growth at 0.01 uM incubated for 48 hrs by sulforhodamine B assay relative to control; format: functional; details: MDA-MB-468, 48 h, read-out: Activity
NCI-H226 [5] = assay: Growth inhibition of human NCI-H226 cells assessed as cell growth at 0.1 uM incubated for 48 hrs by sulforhodamine B assay relative to control; format: functional; details: NCI-H226, 48 h, read-out: Activity
NCI-H23 [6] = assay: Growth inhibition of human NCI-H23 cells assessed as cell growth at 0.1 uM incubated for 48 hrs by sulforhodamine B assay relative to control; format: functional; details: NCI-H23, 48 h, read-out: Activity
U-251 = assay: Growth inhibition of human U251 cells assessed as cell growth at 0.1 uM incubated for 48 hrs by sulforhodamine B assay relative to control; format: functional; details: U-251, 48 h, read-out: Activity
SK-MEL-28 = assay: Growth inhibition of human SK-MEL-28 cells assessed as cell growth at 0.1 uM incubated for 48 hrs by sulforhodamine B assay relative to control; format: functional; details: SK-MEL-28, 48 h, read-out: Activity
OVCAR-8 = assay: Growth inhibition of human OVCAR8 cells assessed as cell growth at 0.1 uM incubated for 48 hrs by sulforhodamine B assay relative to control; format: functional; details: OVCAR-8, 48 h, read-out: Activity
SNB-19 = assay: Growth inhibition of human SNB19 cells assessed as cell growth at 1 uM incubated for 48 hrs by sulforhodamine B assay relative to control; format: functional; details: SNB-19, 48 h, read-out: Activity
UACC-62 [7] = assay: Growth inhibition of human UACC62 cells assessed as cell growth at 1 uM incubated for 48 hrs by sulforhodamine B assay relative to control; format: functional; details: UACC-62, 48 h, read-out: Activity
OVCAR-4 = assay: Growth inhibition of human OVCAR4 cells assessed as cell growth at 1 uM incubated for 48 hrs by sulforhodamine B assay relative to control; format: functional; details: OVCAR-4, 48 h, read-out: Activity
RXF 393 = assay: Growth inhibition of human RXF393 cells assessed as cell growth at 1 uM incubated for 48 hrs by sulforhodamine B assay relative to control; format: functional; details: RXF 393, 48 h, read-out: Activity
SN12C = assay: Growth inhibition of human SN12C cells assessed as cell growth at 1 uM incubated for 48 hrs by sulforhodamine B assay relative to control; format: functional; details: read-out: Activity
RPMI-8226 = assay: Growth inhibition of human RPMI8226 cells assessed as cell growth at 100 uM incubated for 48 hrs by sulforhodamine B assay relative to control; format: functional; details: RPMI-8226, 48 h, read-out: Activity
SR = assay: Growth inhibition of human SR cells assessed as cell growth at 100 uM incubated for 48 hrs by sulforhodamine B assay relative to control; format: functional; details: read-out: Activity
KM12 [8] = assay: Growth inhibition of human KM12 cells assessed as cell growth at 100 uM incubated for 48 hrs by sulforhodamine B assay relative to control; format: functional; details: KM12, 48 h, read-out: Activity
UACC-62 [9] = assay: Growth inhibition of human UACC62 cells assessed as cell growth at 100 uM incubated for 48 hrs by sulforhodamine B assay relative to control; format: functional; details: UACC-62, 48 h, read-out: Activity
A498 = assay: Growth inhibition of human A498 cells assessed as cell growth at 100 uM incubated for 48 hrs by sulforhodamine B assay relative to control; format: functional; details: A498, 48 h, read-out: Activity
PC-3 = assay: Growth inhibition of human PC3 cells assessed as cell growth at 100 uM incubated for 48 hrs by sulforhodamine B assay relative to control; format: functional; details: PC-3, 48 h, read-out: Activity
[10] = read-out: LC50 (the source's name)
[11] = read-out: pLC50 (the source's name) (converted)

With `COc1cc(Cl)cc(-c2nn(-c3cccc(NC(=O)c4cccc(C(F)(F)F)c4)c3)cc2-c2ccncc2)c1` the GI50 (NCI-H226 [1]; read-out: GI50) was over 100 µM, the LC50 (NCI-H226 [1]; read-out: LC50) was over 100 µM and the TGI (NCI-H226 [1]; read-out: TGI) was over 100 µM. For the same compound, the GI50 (NCI-H226 [1]; read-out: pGI50 (converted)) was over 100 µM, the LC50 (NCI-H226 [1]; read-out: pLC50 (converted)) was over 100 µM and the TGI (NCI-H226 [1]; read-out: pTGI (converted)) was over 100 µM. For the same compound, the IC50 (HCT-116) was 3.17 µM, the GI50 (HCT-116; read-out: GI50) was 3.17 µM and the CC50 (HCT-116; [10]) was over 100 µM. It also gave a TGI (HCT-116; read-out: TGI) of over 100 µM, a GI50 (HCT-116; read-out: pGI50 (converted)) of 3.16 µM and a CC50 (HCT-116; [11]) of over 100 µM. For the same compound, the TGI (HCT-116; read-out: pTGI (converted)) was over 100 µM, the GI50 (KM12 [2]; read-out: GI50) was 4.53 µM and the CC50 (KM12 [2]; [10]) was over 100 µM. It also gave a TGI (KM12 [2]; read-out: TGI) of over 100 µM, a GI50 (KM12 [2]; read-out: pGI50 (converted)) of 4.57 µM and a CC50 (KM12 [2]; [11]) of over 100 µM. It also gave a TGI (KM12 [2]; read-out: pTGI (converted)) of over 100 µM, a GI50 (SF-268; read-out: GI50) of over 100 µM and a CC50 (SF-268; [10]) of over 100 µM. For the same compound, the TGI (SF-268; read-out: TGI) was over 100 µM, the GI50 (SF-268; read-out: pGI50 (converted)) was over 100 µM and the CC50 (SF-268; [11]) was over 100 µM. For the same compound, the TGI (SF-268; read-out: pTGI (converted)) was over 100 µM, the IC50 (UACC-62 [3]) was 8.04 µM and the GI50 (UACC-62 [3]; read-out: GI50) was 0.04 µM. For the same compound, the CC50 (UACC-62 [3]; [10]) was over 100 µM, the TGI (UACC-62 [3]; read-out: TGI) was over 100 µM and the GI50 (UACC-62 [3]; read-out: pGI50 (converted)) was 8.13 µM. The CC50 (UACC-62 [3]; [11]) was over 100 µM, the TGI (UACC-62 [3]; read-out: pTGI (converted)) was over 100 µM and the GI50 (ACHN; read-out: GI50) was 7.21 µM. It also gave a CC50 (ACHN; [10]) of over 100 µM, a TGI (ACHN; read-out: TGI) of over 100 µM and a GI50 (ACHN; read-out: pGI50 (converted)) of 7.24 µM. The CC50 (ACHN; [11]) was over 100 µM, the TGI (ACHN; read-out: pTGI (converted)) was over 100 µM and the GI50 (CAKI-1; read-out: GI50) was 3.58 µM. For the same compound, the CC50 (CAKI-1; [10]) was over 100 µM, the TGI (CAKI-1; read-out: TGI) was over 100 µM and the GI50 (CAKI-1; read-out: pGI50 (converted)) was 3.89 µM. For the same compound, the CC50 (CAKI-1; [11]) was over 100 µM, the TGI (CAKI-1; read-out: pTGI (converted)) was over 100 µM and the GI50 (DU-145; read-out: GI50) was over 100 µM. The CC50 (DU-145; [10]) was over 100 µM, the TGI (DU-145; read-out: TGI) was over 100 µM and the GI50 (DU-145; read-out: pGI50 (converted)) was over 100 µM. The CC50 (DU-145; [11]) was over 100 µM, the TGI (DU-145; read-out: pTGI (converted)) was over 100 µM and the growth at 0.01 µM (NCI-H23 [4]) was 93%. The growth at 0.01 µM (SNB-75) was 90%, the growth at 0.01 µM (SK-MEL-5) was 97% and the growth at 0.01 µM (MDA-MB-468) was 91%. For the same compound, the growth at 0.1 µM (NCI-H226 [5]) was 90%, the growth at 0.1 µM (NCI-H23 [6]) was 97% and the growth at 0.1 µM (U-251) was 91%. It also gave a growth at 0.1 µM (SK-MEL-28) of 97%, a growth at 0.1 µM (OVCAR-8) of 94% and a growth at 1 µM (SNB-19) of 100%. For the same compound, the growth at 1 µM (UACC-62 [7]) was 56%, the growth at 1 µM (OVCAR-4) was 97% and the growth at 1 µM (RXF 393) was 53%. It also gave a growth at 1 µM (SN12C) of 58%, a growth at 100 µM (RPMI-8226) of 22% and a growth at 100 µM (SR) of 15%. For the same compound, the growth at 100 µM (KM12 [8]) was 28%, the growth at 100 µM (UACC-62 [9]) was 40% and the growth at 100 µM (A498) was 59%. It also gave a growth at 100 µM (PC-3) of 17%.
